Data: patent EP1379634B1 (THE UNIVERSITY OF GEORGIA RESEARCH FOUNDATION, INC., priority 2001, dated 2002)
Starred links: 1 amine or outer side, 2 acyl side, 3 side chain; linkers in the order of their positions; H or OH if unused. Residues, ends and D or L forms follow the SMILES beside them. *: point of attachment. AFC = O=c1cc(C(F)(F)F)c2ccc(N*)cc2o1; Suc = O=C(CCC(=O)[*:2])[*:1]

Test system: T. solium purified cysteine protease
Assay: Human IgG degradation, western blot (Step IV)
Assay type: biochemical, Taenia solium
Conditions: overnight, 37°C, 18 hrs
Protocol: To conduct this assessment, a western blot was performed. IgG digestion was detected by incubating 20 ul of T. solium purified enzyme or T. […] extract with 1 ug of human IgG (Sigma, St. Louis) in a final volume of 100 ul of assay buffer. Exogenous thiol activation was assessed by incubating the assay in the presence or absence of cysteine. The catalytic class of the IgG protease was determined by pre-incubating the following proteinase inhibitors at their active concentrations, with the enzyme: E 64 (10^-6 M , cysteine proteinases), phenylmethylsulfonyl fluoride (PMSF) (10^-3 M, serine proteinases), pepstatin A (10^-6M, aspartic proteinases), and 1,10 phenanthroline (10^-3 M, metalloproteinases), and the vehicle, Mu-Leu-Tyr-AFC (10^-3 M). After addition of IgG, the assay was incubated overnight (37°C, 18 hrs). Subsequently, 100 ul of the mixture was boiled in sodium dodecyl sulfate polyacrylamide gel electrophoresis (SDS-PAGE) sample buffer with 2% 2-mercaptoethanol, separated by 12.5% SDS-PAGE, and blotted onto a polyvinylidene difluoride membrane. Tris buffered saline containing 0.1 % bovine serum albumin and 0.05% Tween 20 (TBS-BSA) was used to block nonspecific binding. […]

SMILES | inhibition of cleavage of human IgG
CC(C)CC(NC(=O)C1OC1C(=O)O)C(=O)NCCCCNC(=N)N (centres unmarked) [E64, reference compound] | Inhibition was noted
CC(C)C[C@H](NC(=O)CCC(=O)O)C(=O)N[C@@H](Cc1ccc(O)cc1)C(=O)Nc1ccc2c(C(F)(F)F)cc(=O)oc2c1 [suc-Leu-Tyr-AFC] (Suc-Leu-Tyr-{AFC}) | ability to inhibit
